Source: PubChem BioAssay (NCI)
Values joined by “and” are separate entries in the source; they are usually repeats but may differ in a detail not shown here. Equal values may be shown once.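 Abbreviation: GI50, concentration required for 50% inhibition of growth. TGI: total growth inhibition.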

Key:
Experiment in all cases: NCI anticancer screen, dose series, 384-well format
[1] = tested on: UACC-62 melanoma
[2] = tested on: EKVX NSCLC
[3] = tested on: A549 NSCLC
[4] = tested on: MCF7 breast
[5] = tested on: NCI-H322M lung
[6] = tested on: NCI-H226 lung
[7] = tested on: K-562 leukemia
[8] = tested on: M14 melanoma
[9] = tested on: U251 glioblastoma
[10] = tested on: HT29 colon
[11] = tested on: IGROV1 ovarian
[12] = tested on: RPMI-8226 leukemia
[13] = tested on: HCT-116 colon
[14] = tested on: SR leukemia
[15] = tested on: OVCAR-8 ovarian
[16] = tested on: HCC-2998 colon
[17] = tested on: RXF 393 renal
[18] = tested on: MOLT-4 leukemia
[19] = tested on: SN12C renal
[20] = tested on: COLO 205 colon
[21] = tested on: SF-295 CNS
[22] = tested on: SK-MEL-5 melanoma
[23] = tested on: OVCAR-4 ovarian
[24] = tested on: KM12 colon
[25] = tested on: SK-OV-3 ovarian
[26] = tested on: UACC-257 melanoma
[27] = tested on: CAKI-1 renal
[28] = tested on: PC-3 prostate
[29] = tested on: TK-10 renal
[30] = tested on: BT-549 breast
[31] = tested on: LOX IMVI melanoma
[32] = tested on: SK-MEL-2 melanoma
[33] = tested on: CCRF-CEM leukemia
[34] = tested on: NCI-H23 lung
[35] = tested on: MALME-3M melanoma
[36] = tested on: HL-60(TB) leukemia
[37] = tested on: MDA-MB-435 melanoma
[38] = tested on: NCI-H460 NSCLC
[39] = tested on: 786-0 renal
[40] = tested on: NCI/ADR-RES ovarian
[41] = tested on: HS 578T breast
[42] = tested on: NCI-H522 lung
[43] = tested on: SK-MEL-28 melanoma
[44] = tested on: OVCAR-5 ovarian
[45] = tested on: UO-31 renal
[46] = tested on: A498 renal
[47] = tested on: SNB-19 CNS
[48] = tested on: HOP-62 NSCLC
[49] = tested on: T-47D breast
[50] = tested on: ACHN renal
[51] = tested on: SF-268 CNS
[52] = tested on: MDA-MB-231 breast
[53] = tested on: SNB-75 CNS
[54] = tested on: OVCAR-3 ovarian
[55] = tested on: HCT-15 colon
[56] = tested on: HOP-92 NSCLC
[57] = tested on: SF-539 CNS
[58] = tested on: SW-620 colon
[59] = tested on: MDA-MB-468 breast
[60] = tested on: DU-145 prostate

Oc1cccc(-c2nc(N3CCOCC3)c3oc4ncccc4c3n2)c1
GI50 [1]: 305 nM and 400 nM
TGI [1]: 1460 nM and 2300 nM
GI50 [2]: 111 nM and 135 nM
TGI [2]: 468 nM and 504 nM
GI50 [3]: 251 nM and 353 nM
TGI [3]: 1680 nM and 15400 nM
GI50 [4]: 208 nM and 99 nM
TGI [4]: 23300 nM and 19500 nM
GI50 [5]: 229 nM and 106 nM
TGI [5]: 2030 nM and 642 nM
GI50 [6]: 3470 nM and 2290 nM
TGI [6]: 22400 nM and 5680 nM
GI50 [7]: 327 nM
TGI [7]: > 100000 nM
GI50 [8]: 260 nM and 155 nM
GI50 [9]: 670 nM and 390 nM
TGI [9]: > 100000 nM and 19600 nM
GI50 [10]: 3280 nM and 3420 nM
TGI [10]: > 100000 nM
GI50 [11]: 115 nM and 155 nM
TGI [11]: 393 nM and 380 nM
GI50 [12]: 116 nM and 44.9 nM
TGI [12]: 419 nM and 184 nM
GI50 [13]: 982 nM and 466 nM
TGI [13]: > 100000 nM
GI50 [14]: 207 nM and 61.2 nM
TGI [14]: 890 nM and 205 nM
GI50 [15]: 197 nM
TGI [15]: > 100000 nM
GI50 [16]: 147 nM and 367 nM
TGI [16]: 4250 nM and 8570 nM
GI50 [17]: 95.7 nM and 207 nM
TGI [17]: 337 nM and 2860 nM
GI50 [18]: 23 nM and 39.1 nM
TGI [18]: 230 nM and 195 nM
GI50 [19]: 121 nM and 43.3 nM
GI50 [20]: 4480 nM and 5550 nM
TGI [20]: 33600 nM and 27200 nM
GI50 [21]: 1290 nM and 2370 nM
TGI [21]: 4020 nM and 8530 nM
GI50 [22]: 103 nM and 77.6 nM
TGI [22]: 498 nM and 279 nM
GI50 [23]: 350 nM and 87.4 nM
TGI [23]: 3690 nM and 613 nM
GI50 [24]: 312 nM and 305 nM
TGI [24]: > 100000 nM
GI50 [25]: 81.1 nM and 120 nM
GI50 [26]: 535 nM and 350 nM
TGI [26]: 5390 nM and 3810 nM
GI50 [27]: 395 nM and 255 nM
TGI [27]: 5220 nM and 12300 nM
GI50 [28]: 40.8 nM and 39.3 nM
TGI [28]: 1730 nM and 299 nM
GI50 [29]: 331 nM and 167 nM
TGI [29]: 1920 nM and 695 nM
GI50 [30]: 27.9 nM and 125 nM
TGI [30]: 347 nM and 493 nM
GI50 [31]: 318 nM and 207 nM
TGI [31]: 1570 nM and 1060 nM
GI50 [32]: 808 nM
TGI [32]: 4720 nM
GI50 [33]: 202 nM
TGI [33]: 2730 nM
GI50 [34]: 306 nM and 324 nM
TGI [34]: 16100 nM and 17700 nM
GI50 [35]: 40.3 nM and 83.5 nM
GI50 [36]: 62.2 nM and 20.5 nM
TGI [36]: 978 nM and 217 nM
GI50 [37]: 161 nM and 162 nM
TGI [37]: 823 nM and 767 nM
GI50 [38]: 155 nM and 44.1 nM
GI50 [39]: 297 nM
TGI [39]: 1480 nM
GI50 [40]: 240 nM and 151 nM
TGI [40]: > 100000 nM and 18000 nM
GI50 [41]: 61.9 nM and 86.1 nM
TGI [41]: 288 nM and 617 nM
GI50 [42]: 81.6 nM and 55.9 nM
TGI [42]: 524 nM and 501 nM
GI50 [43]: 96.3 nM and 123 nM
GI50 [44]: 3540 nM and 2560 nM
GI50 [45]: 60.9 nM
TGI [45]: 295 nM
GI50 [46]: 2050 nM and 598 nM
TGI [46]: 4690 nM and 2870 nM
GI50 [47]: 1260 nM and 1380 nM
TGI [47]: > 100000 nM and 24300 nM
GI50 [48]: 429 nM and 231 nM
TGI [48]: 3820 nM and 2810 nM
GI50 [49]: 150 nM and 215 nM
GI50 [50]: 70.7 nM and 77.9 nM
TGI [50]: 2440 nM and 563 nM
GI50 [51]: 239 nM and 394 nM
TGI [51]: 10100 nM and 17900 nM
GI50 [52]: 289 nM and 500 nM
TGI [52]: 47600 nM and > 100000 nM
GI50 [53]: 33.4 nM and 53.7 nM
GI50 [54]: 54 nM and 118 nM
TGI [54]: 398 nM and 408 nM
GI50 [55]: 128 nM and 104 nM
TGI [55]: > 100000 nM and 38500 nM
GI50 [56]: 50.6 nM and 111 nM
GI50 [57]: 114 nM and 143 nM
TGI [57]: 1590 nM and 11400 nM
GI50 [58]: 561 nM
TGI [58]: > 100000 nM
GI50 [59]: 289 nM and 291 nM
TGI [59]: 1140 nM and 1240 nM
GI50 [60]: 154 nM and 112 nM
